Measured values: article PMC4686899, “Peptides derived from CXCL8 based on in silico analysis inhibit CXCL8 interactions with its receptor CXCR1” (Scientific Reports, 2015)
Each block holds one molecule with its values, some of them ahead of it. Ends that are not written are not given here.

Key:
[1] = tested on: HMEC-1; assay: Cell viability assay (WST-1); type: cell-based, human; conditions: various concentrations of p_wt14, 24 and 48 h, WST-1, vs control
Protocol: (§1) Human micro-vascular endothelial cell-1 (HMEC-1, from American Type Culture Collection Manassas, USA) was maintained in MCDB 131 medium (Sigma, USA) with L-glutamine and fetal bovine serum (Sigma, USA) to a final concentration of 15%. The medium was supplemented with 500 units/ml penicillin (Biowest, USA), 500 μg/ml streptomycin (Biowest, USA), 10 ng/ml Epidermal Growth Factor (ProSpec, USA) and 1 µg/ml hydrocortisone (Sigma, USA). The THP-1 cells were maintained in the RPMI-1640 medium (Invitrogen, USA) with 10% FBS.
To evaluate if the peptide p_wt14 is toxic to the HMEC-1 under resting conditions, 2 × 10^4 cells were dispensed into each well of 96-well micro-plates and incubated for 2 hours for adhesion. After that, the medium containing peptide p_wt14 at various concentrations was added. After 24 and 48 hours of incubation, cells were washed with Hank’s balanced salt solution and the viabilities of HMEC-1were determined by WST-1 assay kit (Roche, USA). Each experiment was performed in quadruplicate and repeated at least three times.

[2] = tested on: THP-1 transmigration across CXCL8-stimulated HMEC-1; assay: CXCL8-induced monocyte transendothelial migration across HMEC-1 (Transwell); type: cell-based, human; conditions: 25 ng/ml CXCL8, 18 h, vs absence of CXCL8
Protocol: as §1
Migration of THP-1 cells across HMEC-1 was performed in a Transwell system (BD Bioscences, USA). Briefly, HMEC-1 cells cultured on transwell (polycarbonate membranes with 8 μm pore sizes) filters were pretreated with peptides for one hour and then stimulated with 25 ng/ml LPS or CXCL8 for 18 hours. THP-1 monocytes (2 × 10^5 cells/well) were added to the upper chamber of transwell inserts containing 50 μl RPMI 1640. LPS (25 ng/ml), CXCL8 peptide (p_wt14) (0.5 and 5 mM), or both combinations were added to the lower chamber to initiate transmigration. After four hours of incubation at 37 °C under 5% CO2, cells that had transmigrated to the lower chamber were harvested and counted using microscopy. All experiments were measured in at least three independent studies, and the data represent the number of transmigrated THP-1 cells.

[3] = tested on: THP-1 cell adhesion to CXCL8-treated HMEC-1; type: cell-based, human; conditions: 25 ng/ml CXCL8, 18 h, no peptide, vs control
Protocol: Human micro-vascular endothelial cell-1 (HMEC-1, from American Type Culture Collection Manassas, USA) was maintained in MCDB 131 medium (Sigma, USA) with L-glutamine and fetal bovine serum (Sigma, USA) to a final concentration of 15%. The medium was supplemented with 500 units/ml penicillin (Biowest, USA), 500 μg/ml streptomycin (Biowest, USA), 10 ng/ml Epidermal Growth Factor (ProSpec, USA) and 1 µg/ml hydrocortisone (Sigma, USA). The THP-1 cells were maintained in the RPMI-1640 medium (Invitrogen, USA) with 10% FBS. For the assay of THP-1 cell adhesion to HMEC-1 monolayers, confluent HMEC-1 cell monolayers cultured on 24-well plates were pretreated with peptides for one hour and activated with 25 ng/ml LPS (Sigma, USA) or full length CXCL8 (ProSpec, USA) for 18 hours. THP-1 monocytes were suspended in RPMI 1640 and prelabeled with 5 mM Calcein-AM (Invitrogen, USA) for 30 minutes. Before the THP-1 cells were added to HMEC-1, the monolayers were washed twice to remove LPS or CXCL8. Fluorescence labeled monocytes (3 × 10^5 cells/well) were then added to HMEC-1 and incubated for 30 minutes at 37 °C. […] The images of adhered THP-1 cells were photographed (five images per well) under fluorescent microscopy and the number of attached monocytes was counted with the software AlphaImager 2200 (Alpha Innotech, USA).

[4] = biological target: CXCR1p receptor-derived peptide (Homo sapiens), P25024; assay: SPR; conditions: modification not given
Sequence of CXCR1p receptor-derived peptide (Homo sapiens), P25024 (P25024 9-29): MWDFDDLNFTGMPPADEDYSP

Molecule: QCIKTYSKPFHPKF [p_wt14]
HMEC-1 cell viability (in words) [1]: no significant cell viability difference

Molecule: CXCL8: chemokine CXCL8 (also known as interleukin-8 or IL-8), full length
effect of CXCL8 on monocyte transmigration (in words) [2]: considerable increase in monocyte transmigration | effect of CXCL8 on monocyte adhesion to HMEC-1 (in words) [3]: significant increase in the number of adhered monocytes

Kd [4]: 252 µM
B1: CXCL8 peptide p_wt14 14-residue peptide, P10145 (peptide)
chain: IKTYSKPFHPKFIK
